In brackets after ≈: the same amount, converted by molar mass. Read-outs that look alike come from different tables or passages of the source.
Legend:
P. aeruginosa = assay: Checkerboard assay (antibiotic + adjuvant combination MIC); type: cell-based, Pseudomonas aeruginosa
Method: Antimicrobial Susceptibility Assay. The in vitro antimicrobial activity of all compounds/antibiotics against a panel of bacteria was evaluated by microbroth dilution method in accordance with the Clinical and Laboratory Standards Institute (CLSI) guidelines (using ATCC strains as quality control strains) (54). Overnight grown bacterial cultures were diluted in saline to achieve a 0.5 McFarland turbidity, followed by 1:50 dilution in Mueller-Hinton broth (MHB) for inoculation to a final concentration of approximately 5×10^5 CFU/mL. […] The lowest concentration that prevented the visible growth of bacteria was defined as the MIC for each antimicrobial agent. The broth with or without bacterial cells was used as positive or negative control, respectively.
Checkerboard Assay. Combination studies with different antibiotics were performed in 96-well plates as previously described (19). Briefly, the antibiotic of interest was serially diluted in MHB along the abscissa while the adjuvant (tobramycin homodimer) was serially diluted in MHB along the ordinate. This creates a 10×7 matrices wherein each well consists of a combination of different antibiotic and adjuvant concentrations. Overnight grown bacterial cultures were diluted in saline to achieve a 0.5 McFarland turbidity, followed by 1:50 dilution in Mueller-Hinton broth (MHB) for inoculation to a final concentration of approximately 5×10^5 CFU/mL. […] MIC was recorded as wells with the lowest concentration of drugs with no bacterial growth. The fractional inhibitory concentration (FIC) for each antibiotic was calculated by dividing the MIC of the antibiotic in the presence of adjuvant by the MIC of the antibiotic alone. Similarly, the FIC of adjuvant was calculated by dividing the MIC of the adjuvant in the presence of antibiotic by the MIC of the adjuvant alone. FIC index is the sum of both FICs. FIC indices of ≤0.5 were deemed synergistic; >0.5-4, no interaction; and >4, antagonistic.

[1] = system: P. aeruginosa PAO1 and efflux deficient mutants, MDR/XDR isolates; assay: microbe, parasite or virus in culture; type: cell-based, Pseudomonas aeruginosa
Method: Antimicrobial Susceptibility Assay. The in vitro antimicrobial activity of all compounds/antibiotics against a panel of bacteria was evaluated by microbroth dilution method in accordance with the Clinical and Laboratory Standards Institute (CLSI) guidelines (using ATCC strains as quality control strains) (54). […] The broth with or without bacterial cells was used as positive or negative control, respectively.

[2] = P. aeruginosa PAO1, compound at 8 μM
[3] = PA 262-101856, compound at 8 μM
[4] = PA 264-104354, compound at 8 μM
[5] = PA O200 (efflux-deficient), compound at 8 μM
[6] = PA O750 (efflux-deficient), compound at 8 μM

NC[C@H]1O[C@H](O[C@H]2[C@H](OCCCCc3cn(CCCCO[C@@H]4[C@@H](O)[C@H](N)C[C@H](N)[C@H]4O[C@H]4O[C@H](CN)[C@@H](O)C[C@H]4N)nn3)[C@@H](O)[C@H](N)C[C@@H]2N)[C@H](N)C[C@@H]1O [Compound 26, Nebramine Homodimer] was tested, and the MIC of CAZ in the presence of compound (P. aeruginosa) was 128 µg/mL, the MIC of Aztreonam + compound (P. aeruginosa; [2]) was 1 µg/mL and the MIC of Ceftazidime + compound (P. aeruginosa; [2]) was 0.5 µg/mL. The MIC of Imipenem + compound (P. aeruginosa; [2]) was 2 µg/mL, the MIC of Piperacillin + compound (P. aeruginosa; [2]) was 8 µg/mL and the MIC of ATM in the presence of compound (P. aeruginosa; PA 259-96918, compound at 8 μM) was 8 µg/mL. For the same molecule, the MIC of IPM in the presence of compound (P. aeruginosa; PA 259-96918, compound at 8 μM) was 64 µg/mL, the MIC of ATM in the presence of compound (P. aeruginosa; PA 260-97103, compound at 8 μM) was 16 µg/mL and the MIC of CAZ in the presence of compound (P. aeruginosa; PA 260-97103, compound at 8 μM) was 16 µg/mL. For the same molecule, the MIC of IPM in the presence of compound (P. aeruginosa; PA 260-97103, compound at 8 μM) was 16 µg/mL, the MIC of ATM in the presence of compound (P. aeruginosa; [3]) was 16 µg/mL and the MIC of CAZ in the presence of compound (P. aeruginosa; [3]) was 16 µg/mL. The MIC of IPM in the presence of compound (P. aeruginosa; [3]) was 4 µg/mL, the MIC of ATM in the presence of compound (P. aeruginosa; [4]) was 8 µg/mL and the MIC of CAZ in the presence of compound (P. aeruginosa; [4]) was 32 µg/mL. The MIC of IPM in the presence of compound (P. aeruginosa; [4]) was 8 µg/mL, the MIC of ATM in the presence of compound (P. aeruginosa; PA 86052, compound at 8 μM) was 32 µg/mL and the MIC of CAZ in the presence of compound (P. aeruginosa; PA 86052, compound at 8 μM) was 64 µg/mL. The MIC of IPM in the presence of compound (P. aeruginosa; PA 86052, compound at 8 μM) was 16 µg/mL, the MIC of ATM in the presence of compound (P. aeruginosa; PA 88949, compound at 8 μM) was 16 µg/mL and the MIC of CAZ in the presence of compound (P. aeruginosa; PA 88949, compound at 8 μM) was 64 µg/mL. It also gave an MIC of IPM in the presence of compound (P. aeruginosa; PA 88949, compound at 8 μM) of 32 µg/mL, an MIC of ATM in the presence of compound (P. aeruginosa; PA 91433, compound at 8 μM) of 2 µg/mL and an MIC of CAZ in the presence of compound (P. aeruginosa; PA 91433, compound at 8 μM) of 0.5 µg/mL. For the same molecule, the MIC of IPM in the presence of compound (P. aeruginosa; PA 91433, compound at 8 μM) was 8 µg/mL, the MIC of ATM in the presence of compound (P. aeruginosa; PA 100036, compound at 8 μM) was 4 µg/mL and the MIC of CAZ in the presence of compound (P. aeruginosa; PA 100036, compound at 8 μM) was 4 µg/mL. It also gave an MIC of IPM in the presence of compound (P. aeruginosa; PA 100036, compound at 8 μM) of 4 µg/mL, an MIC of ATM in the presence of compound (P. aeruginosa; PA 101243, compound at 8 μM) of 8 µg/mL and an MIC of CAZ in the presence of compound (P. aeruginosa; PA 101243, compound at 8 μM) of 32 µg/mL. It also gave an MIC of IPM in the presence of compound (P. aeruginosa; PA 101243, compound at 8 μM) of 8 µg/mL, an MIC of ATM in the presence of compound (P. aeruginosa; PA 101885, compound at 8 μM) of 4 µg/mL and an MIC of CAZ in the presence of compound (P. aeruginosa; PA 101885, compound at 8 μM) of 1 µg/mL. The MIC of IPM in the presence of compound (P. aeruginosa; PA 101885, compound at 8 μM) was 4 µg/mL, the MIC of ATM in the presence of compound (P. aeruginosa; PA 107092, compound at 8 μM) was 32 µg/mL and the MIC of IPM in the presence of compound (P. aeruginosa; PA 107092, compound at 8 μM) was 32 µg/mL. For the same molecule, the MIC of ATM in the presence of compound (P. aeruginosa; PA 108590, compound at 8 μM) was 16 µg/mL, the MIC of CAZ in the presence of compound (P. aeruginosa; PA 108590, compound at 8 μM) was 32 µg/mL and the MIC of IPM in the presence of compound (P. aeruginosa; PA 108590, compound at 8 μM) was 8 µg/mL. It also gave an MIC of ATM in the presence of compound (P. aeruginosa; PA 109084, compound at 8 μM) of 16 µg/mL, an MIC of CAZ in the presence of compound (P. aeruginosa; PA 109084, compound at 8 μM) of 32 µg/mL and an MIC of IPM in the presence of compound (P. aeruginosa; PA 109084, compound at 8 μM) of 16 µg/mL. For the same molecule, the MIC of ATM in the presence of compound (P. aeruginosa; PA 114228, compound at 8 μM) was 16 µg/mL, the MIC of CAZ in the presence of compound (P. aeruginosa; PA 114228, compound at 8 μM) was 1 µg/mL and the MIC of IPM in the presence of compound (P. aeruginosa; PA 114228, compound at 8 μM) was 4 µg/mL. For the same molecule, the MIC of ATM in the presence of compound (P. aeruginosa; [5]) was 0.06 µg/mL, the MIC of CAZ in the presence of compound (P. aeruginosa; [5]) was 0.25 µg/mL and the MIC of IPM in the presence of compound (P. aeruginosa; [5]) was 1 µg/mL. It also gave an MIC of ATM in the presence of compound (P. aeruginosa; [6]) of 0.25 µg/mL, an MIC of CAZ in the presence of compound (P. aeruginosa; [6]) of 0.13 µg/mL and an MIC of IPM in the presence of compound (P. aeruginosa; [6]) of 2 µg/mL. For the same molecule, the MIC of ATM in the presence of compound (P. aeruginosa; PAO1, compound at 8 μM) was 1 µg/mL, the MIC of CAZ in the presence of compound (P. aeruginosa; PAO1, compound at 8 μM) was 0.5 µg/mL and the MIC of IPM in the presence of compound (P. aeruginosa; PAO1, compound at 8 μM) was 2 µg/mL. For the same molecule, the MIC ([1]; PAO1 (wild-type)) was >128 µg/mL, the MIC ([1]; PAO200 (first column so headed)) was >128 µg/mL and the MIC ([1]; PAO200 (second column so headed)) was 128 µg/mL (≈ 162 µM).

Source: patent publication US20220249441A1, “Homodimeric Tobramycin Adjuvant Repurposes Novobiocin as an Effective Antibacterial Agent Against Gram-Negative Bacteria” (priority 2019, published 2022)
